Results as given in PMC7549094 (Journal of Medicinal Chemistry, 2020).

Assays:
[1] = microsomal extraction ratio, 1 h incubation in microsomes
[2] = in vivo micronucleus (MNT) study in rat
[3] = metabolite profile in dog hepatocytes; type: in vitro ADME; settings: 10 μM of 1 for 4 h, UV 250 nm, normalized to largest peak
[4] = test system: T. brucei bloodstream form overexpressing PSMB5 Y113F; assay: growth inhibition of T. brucei overexpressing PSMB5 Y113F; type: cell-based
From the text: Generation of T. brucei strains ectopically expressing proteasome β4 and β5 subunit variants
All the T. brucei proteasome mutants were generated by following protocols described earlier (Khare et
assembly technology (NEBuilder high fidelity DNA assembly cloning kit). The sense (5′-
Y113F gene was generated from the wild-type PSMB5 construct by site-directed mutagenesis using
mutagenic sense (5′- [sequence]tcgta[sequence]-3′), antisense (5′-
[sequence]-3′) primers and QuikChange II Site-Directed Mutagenesis Kit
(Stratagene). The sequences of the wild-type and mutant PSMB5 genes were verified by sequencing and
both gene versions were cloned into the T. brucei expression vector pHD1034 under control of a
ribosomal RNA promoter. Transfected T. brucei Lister 427 cells were selected in medium supplemented
with puromycin at 1 μg/ml. Susceptibility of transfected T. brucei cell lines to compounds was assessed
after 2 days of compound treatment. Parasite viability was determined with CellTiter-Glo. All assays were
carried out in three biological replicates. Reported EC50 values for T. brucei parasites ectopically
expressing PSMB5 proteins were calculated from three technical replicates.
inhibition of T. brucei bloodstream form constitutively overexpressing wild -type PSMB5 or PSMBY113F

hr CCKa = molecular target: T1, hr CCKa (Homo sapiens, UniProt P32238); assay: receptor profile (Table S4); type: binding
T1 sequence (P32238 1-428): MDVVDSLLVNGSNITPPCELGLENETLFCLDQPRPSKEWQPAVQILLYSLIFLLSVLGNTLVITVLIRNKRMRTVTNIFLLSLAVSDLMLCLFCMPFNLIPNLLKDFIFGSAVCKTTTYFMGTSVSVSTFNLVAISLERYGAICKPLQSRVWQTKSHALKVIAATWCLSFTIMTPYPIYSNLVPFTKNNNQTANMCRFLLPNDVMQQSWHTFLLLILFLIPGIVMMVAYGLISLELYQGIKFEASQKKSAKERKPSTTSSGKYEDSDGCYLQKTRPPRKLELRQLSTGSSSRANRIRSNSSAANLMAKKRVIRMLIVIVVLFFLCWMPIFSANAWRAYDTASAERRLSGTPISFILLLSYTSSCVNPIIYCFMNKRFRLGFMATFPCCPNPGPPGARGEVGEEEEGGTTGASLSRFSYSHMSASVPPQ

hr D2 = hr D2 (Homo sapiens, UniProt P14416); assay: receptor profile (Table S4); type: binding
hr 5-HT2B antag = hr 5-HT2B antag (Homo sapiens, UniProt P41595); assay: receptor profile (Table S4); type: biochemical
hr 5-HT2C = molecular target: T2, hr 5-HT2C (Homo sapiens, UniProt P28335); assay: receptor profile (Table S4); type: binding
T2 sequence (P28335 33-458): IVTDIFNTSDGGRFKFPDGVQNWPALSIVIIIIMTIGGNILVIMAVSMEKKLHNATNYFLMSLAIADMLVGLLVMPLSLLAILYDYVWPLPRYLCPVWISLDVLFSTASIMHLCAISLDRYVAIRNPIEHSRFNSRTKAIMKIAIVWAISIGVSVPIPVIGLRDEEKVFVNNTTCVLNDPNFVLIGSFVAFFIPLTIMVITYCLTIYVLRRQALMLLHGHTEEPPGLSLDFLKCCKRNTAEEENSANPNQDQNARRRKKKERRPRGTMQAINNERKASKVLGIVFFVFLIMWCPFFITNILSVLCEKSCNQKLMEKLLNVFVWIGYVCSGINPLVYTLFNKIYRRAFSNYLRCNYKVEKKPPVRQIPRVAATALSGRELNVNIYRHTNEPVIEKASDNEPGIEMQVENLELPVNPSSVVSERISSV

hr M2 ag = molecular target: T3, hr M2 ag (Homo sapiens, UniProt P08172); assay: receptor profile (Table S4); type: biochemical
T3 sequence (P08172 1-466): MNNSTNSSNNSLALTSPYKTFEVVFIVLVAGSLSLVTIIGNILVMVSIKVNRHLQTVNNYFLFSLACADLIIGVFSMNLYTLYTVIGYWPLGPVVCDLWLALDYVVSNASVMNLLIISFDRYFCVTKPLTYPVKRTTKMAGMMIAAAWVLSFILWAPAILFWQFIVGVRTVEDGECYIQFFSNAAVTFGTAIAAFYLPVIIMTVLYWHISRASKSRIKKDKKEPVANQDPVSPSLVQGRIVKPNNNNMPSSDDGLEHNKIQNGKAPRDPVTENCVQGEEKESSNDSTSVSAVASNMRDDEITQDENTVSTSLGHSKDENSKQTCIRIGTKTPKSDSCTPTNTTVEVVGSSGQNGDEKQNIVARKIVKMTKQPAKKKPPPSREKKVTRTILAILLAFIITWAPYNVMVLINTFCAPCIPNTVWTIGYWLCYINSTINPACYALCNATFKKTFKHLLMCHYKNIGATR

hr OpD = hr OpD (Homo sapiens, UniProt P41143); assay: receptor profile (Table S4); type: binding
hr COX-2 = molecular target: T4, hr COX-2 (Homo sapiens, UniProt P35354); assay: receptor profile (Table S4); type: biochemical
T4 sequence (P35354 18-604): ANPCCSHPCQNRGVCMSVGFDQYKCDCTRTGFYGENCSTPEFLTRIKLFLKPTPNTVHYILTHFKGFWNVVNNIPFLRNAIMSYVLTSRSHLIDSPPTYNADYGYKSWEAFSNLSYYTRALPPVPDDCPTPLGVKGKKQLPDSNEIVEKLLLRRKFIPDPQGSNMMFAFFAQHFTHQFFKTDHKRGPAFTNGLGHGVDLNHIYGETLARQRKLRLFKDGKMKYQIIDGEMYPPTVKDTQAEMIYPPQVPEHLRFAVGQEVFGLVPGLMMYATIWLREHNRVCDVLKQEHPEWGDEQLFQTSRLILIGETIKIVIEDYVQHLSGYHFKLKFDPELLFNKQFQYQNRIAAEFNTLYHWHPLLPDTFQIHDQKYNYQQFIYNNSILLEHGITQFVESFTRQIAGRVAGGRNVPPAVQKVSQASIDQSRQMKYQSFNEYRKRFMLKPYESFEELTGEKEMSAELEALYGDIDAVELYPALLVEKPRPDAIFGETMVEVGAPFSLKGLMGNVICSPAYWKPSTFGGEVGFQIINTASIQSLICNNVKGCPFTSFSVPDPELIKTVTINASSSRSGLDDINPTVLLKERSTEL

hr KDR = hr KDR (Homo sapiens, UniProt P35968); assay: receptor profile (Table S4); type: biochemical
hERG = hERG (Homo sapiens, UniProt Q12809); assay: receptor profile (Table S4)
Sequence of hERG (Q12809 whole entry): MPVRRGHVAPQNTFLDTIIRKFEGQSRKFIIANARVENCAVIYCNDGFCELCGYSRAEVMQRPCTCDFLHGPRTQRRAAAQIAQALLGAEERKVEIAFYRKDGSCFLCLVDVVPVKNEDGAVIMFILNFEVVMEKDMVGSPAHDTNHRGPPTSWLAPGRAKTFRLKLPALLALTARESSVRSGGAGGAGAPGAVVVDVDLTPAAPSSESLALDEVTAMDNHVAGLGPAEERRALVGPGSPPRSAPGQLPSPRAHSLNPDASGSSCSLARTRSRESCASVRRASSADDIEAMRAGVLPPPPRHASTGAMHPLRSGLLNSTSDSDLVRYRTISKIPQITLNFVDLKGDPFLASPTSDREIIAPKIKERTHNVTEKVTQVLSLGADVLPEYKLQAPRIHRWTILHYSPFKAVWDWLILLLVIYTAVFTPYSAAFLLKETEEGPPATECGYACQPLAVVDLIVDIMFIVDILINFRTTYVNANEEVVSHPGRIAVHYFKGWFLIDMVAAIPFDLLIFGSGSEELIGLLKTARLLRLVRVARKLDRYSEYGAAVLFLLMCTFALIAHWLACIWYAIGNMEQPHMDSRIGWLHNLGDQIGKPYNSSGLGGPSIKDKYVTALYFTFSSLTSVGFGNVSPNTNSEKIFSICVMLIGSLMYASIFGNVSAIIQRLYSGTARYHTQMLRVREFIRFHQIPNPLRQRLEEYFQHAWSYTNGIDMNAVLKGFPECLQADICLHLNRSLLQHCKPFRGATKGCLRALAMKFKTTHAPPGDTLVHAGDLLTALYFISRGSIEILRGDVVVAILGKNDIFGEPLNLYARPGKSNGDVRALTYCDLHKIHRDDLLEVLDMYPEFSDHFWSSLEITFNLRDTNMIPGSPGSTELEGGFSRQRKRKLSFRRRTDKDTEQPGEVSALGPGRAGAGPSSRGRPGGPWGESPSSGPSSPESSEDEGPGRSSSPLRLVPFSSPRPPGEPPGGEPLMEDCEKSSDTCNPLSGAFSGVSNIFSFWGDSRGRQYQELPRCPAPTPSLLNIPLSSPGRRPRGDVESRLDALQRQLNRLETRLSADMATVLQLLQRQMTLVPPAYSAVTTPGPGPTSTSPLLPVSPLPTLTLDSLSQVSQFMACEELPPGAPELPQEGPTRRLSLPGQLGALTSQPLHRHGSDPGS

Sequence of hr D2 (P14416 whole entry): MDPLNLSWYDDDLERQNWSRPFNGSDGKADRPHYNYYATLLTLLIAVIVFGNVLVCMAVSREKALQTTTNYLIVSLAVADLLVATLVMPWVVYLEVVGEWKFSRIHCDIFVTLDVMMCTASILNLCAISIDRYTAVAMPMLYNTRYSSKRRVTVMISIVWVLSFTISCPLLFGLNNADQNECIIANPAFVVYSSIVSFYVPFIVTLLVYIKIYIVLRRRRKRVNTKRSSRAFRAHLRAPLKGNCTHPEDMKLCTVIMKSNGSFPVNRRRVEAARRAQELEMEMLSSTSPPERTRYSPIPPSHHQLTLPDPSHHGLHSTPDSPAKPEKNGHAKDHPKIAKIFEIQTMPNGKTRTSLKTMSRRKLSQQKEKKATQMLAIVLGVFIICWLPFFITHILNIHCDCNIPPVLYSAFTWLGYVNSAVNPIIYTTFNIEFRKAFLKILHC
Sequence of hr 5-HT2B antag (P41595 whole entry): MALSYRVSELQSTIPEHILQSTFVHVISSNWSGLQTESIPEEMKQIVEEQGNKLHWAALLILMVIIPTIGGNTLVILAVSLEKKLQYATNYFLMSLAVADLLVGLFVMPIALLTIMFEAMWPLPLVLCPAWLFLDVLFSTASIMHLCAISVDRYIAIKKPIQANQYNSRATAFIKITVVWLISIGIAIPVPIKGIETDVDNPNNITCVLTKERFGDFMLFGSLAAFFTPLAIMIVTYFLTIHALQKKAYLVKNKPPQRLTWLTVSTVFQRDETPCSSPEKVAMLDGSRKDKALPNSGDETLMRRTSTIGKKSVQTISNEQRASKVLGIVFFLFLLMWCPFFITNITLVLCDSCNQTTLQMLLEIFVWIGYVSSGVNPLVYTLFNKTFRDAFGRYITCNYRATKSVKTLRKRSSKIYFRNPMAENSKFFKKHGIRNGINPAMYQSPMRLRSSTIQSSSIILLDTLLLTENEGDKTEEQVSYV
Sequence of hr KDR (P35968 20-1356): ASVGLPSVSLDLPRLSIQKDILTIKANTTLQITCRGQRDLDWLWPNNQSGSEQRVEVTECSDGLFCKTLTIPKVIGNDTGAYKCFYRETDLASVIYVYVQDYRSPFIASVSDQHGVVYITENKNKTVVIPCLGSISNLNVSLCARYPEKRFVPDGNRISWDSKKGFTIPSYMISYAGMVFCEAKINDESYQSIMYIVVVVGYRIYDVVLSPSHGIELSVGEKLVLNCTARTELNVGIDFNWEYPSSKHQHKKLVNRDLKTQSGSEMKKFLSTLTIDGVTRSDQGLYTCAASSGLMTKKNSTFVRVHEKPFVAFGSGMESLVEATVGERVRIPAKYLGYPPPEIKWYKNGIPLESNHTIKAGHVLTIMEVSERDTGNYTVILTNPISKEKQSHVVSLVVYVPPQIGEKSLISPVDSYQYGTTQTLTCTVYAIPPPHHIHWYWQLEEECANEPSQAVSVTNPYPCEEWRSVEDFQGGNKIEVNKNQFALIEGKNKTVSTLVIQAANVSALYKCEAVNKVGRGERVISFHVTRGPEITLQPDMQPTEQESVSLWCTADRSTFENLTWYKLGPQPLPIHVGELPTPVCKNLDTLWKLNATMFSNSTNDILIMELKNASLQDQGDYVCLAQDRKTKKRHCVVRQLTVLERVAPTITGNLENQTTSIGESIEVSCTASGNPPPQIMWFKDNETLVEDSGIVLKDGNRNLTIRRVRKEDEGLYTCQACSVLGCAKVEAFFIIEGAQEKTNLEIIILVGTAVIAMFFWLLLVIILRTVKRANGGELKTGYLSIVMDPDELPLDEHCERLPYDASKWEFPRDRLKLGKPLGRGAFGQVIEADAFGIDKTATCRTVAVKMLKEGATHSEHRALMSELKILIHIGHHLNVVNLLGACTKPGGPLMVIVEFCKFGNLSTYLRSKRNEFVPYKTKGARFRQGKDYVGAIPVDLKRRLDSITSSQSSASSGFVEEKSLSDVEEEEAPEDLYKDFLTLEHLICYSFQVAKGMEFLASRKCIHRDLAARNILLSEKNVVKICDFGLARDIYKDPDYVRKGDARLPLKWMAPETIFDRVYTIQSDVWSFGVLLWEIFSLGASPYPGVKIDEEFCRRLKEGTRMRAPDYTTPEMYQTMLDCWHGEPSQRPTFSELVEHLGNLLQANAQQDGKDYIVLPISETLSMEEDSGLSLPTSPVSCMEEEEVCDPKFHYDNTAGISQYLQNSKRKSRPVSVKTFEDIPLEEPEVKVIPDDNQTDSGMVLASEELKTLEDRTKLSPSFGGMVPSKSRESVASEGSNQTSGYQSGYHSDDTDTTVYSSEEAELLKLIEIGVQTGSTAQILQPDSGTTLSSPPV
Sequence of hr OpD (P41143 whole entry): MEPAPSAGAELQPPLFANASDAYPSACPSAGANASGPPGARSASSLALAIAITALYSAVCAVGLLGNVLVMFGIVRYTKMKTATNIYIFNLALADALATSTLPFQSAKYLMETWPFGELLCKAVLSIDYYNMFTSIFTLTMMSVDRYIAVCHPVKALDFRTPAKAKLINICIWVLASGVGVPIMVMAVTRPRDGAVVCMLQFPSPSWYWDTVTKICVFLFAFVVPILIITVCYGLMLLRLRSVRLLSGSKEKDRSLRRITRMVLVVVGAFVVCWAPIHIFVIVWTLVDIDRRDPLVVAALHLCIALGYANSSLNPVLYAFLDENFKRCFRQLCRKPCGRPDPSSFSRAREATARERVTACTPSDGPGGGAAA

In the case of `Cc1nc(C)c(C(=O)Nc2ccc(F)c(-c3nc4ncc(-c5ncccc5C)cn4n3)c2)o1` [compound 1, N-(4-Fluoro-3-(6-(3-methylpyridin-2-yl)-[1,2,4]triazolo[1,5-a]pyrimidin-2-yl)phenyl)-2,4-dimethyloxazole-5-carboxamide], the ER human [1] is reported as 0.27, the “micronucleus (MNT), risk of clastogenicity” value [2] is reported as “did not indicate a risk” and the abundance dog [3] is reported as “+++ (+++ > 75%)”. For the same molecule, the “effect of β5 Y113F mutation of T. brucei proteasome on activity” value ([4]; T. brucei, β5 Y113F) was “loss of activity”, the EC50 ([4]; Trypanosoma brucei, 48 h, read-out: EC50, T. brucei growth) was 3.3 µM and the EC50/IC50 (hr CCKa; hr CCKa) was greater than 30 µM. The inhibition at 10 µM (hr CCKa; read-out: % inh/act @ 10 µM) was 12%, the inhibition at 30 µM (hr CCKa; read-out: % inh/act @ 30 µM) was 50% and the EC50/IC50 (hr D2; hr D2) was greater than 30 µM. The inhibition at 10 µM (hr D2; read-out: % inh/act @ 10 µM) was 7%, the inhibition at 30 µM (hr D2; read-out: % inh/act @ 30 µM) was 15% and the EC50/IC50 (hr 5-HT2B antag; hr 5-HT2B antag) was greater than 30 µM. The inhibition at 10 µM (hr 5-HT2B antag; read-out: % inh/act @ 10 µM) was 22%, the inhibition at 30 µM (hr 5-HT2B antag; read-out: % inh/act @ 30 µM) was 24% and the EC50/IC50 (hr 5-HT2C; hr 5-HT2C) was greater than 30 µM. It also gave an inhibition at 10 µM (hr 5-HT2C; read-out: % inh/act @ 10 µM) of 9%, an inhibition at 30 µM (hr 5-HT2C; read-out: % inh/act @ 30 µM) of 8% and an EC50/IC50 (hr M2 ag; hr M2 ag) greater than 30 µM. It also gave an inhibition at 10 µM (hr M2 ag; read-out: % inh/act @ 10 µM) of 0%, an inhibition at 30 µM (hr M2 ag; read-out: % inh/act @ 30 µM) of 1% and an EC50/IC50 (hr OpD; hr OpD) greater than 30 µM. For the same molecule, the inhibition at 10 µM (hr OpD; read-out: % inh/act @ 10 µM) was 22%, the inhibition at 30 µM (hr OpD; read-out: % inh/act @ 30 µM) was 33% and the EC50/IC50 (hr COX-2; hr COX-2) was greater than 30 µM. The inhibition at 10 µM (hr COX-2; read-out: % inh/act @ 10 µM) was 9%, the inhibition at 30 µM (hr COX-2; read-out: % inh/act @ 30 µM) was 13% and the EC50/IC50 (hr KDR; hr KDR) was greater than 30 µM. The inhibition at 10 µM (hr KDR; read-out: % inh/act @ 10 µM) was 21%, the inhibition at 30 µM (hr KDR; read-out: % inh/act @ 30 µM) was 22% and the “% inh/act @ 10 µM” value (r BZD) was 7%. The “% inh/act @ 30 µM” value (r BZD) was 7%, the EC50/IC50 (hERG; hERG) was greater than 30 µM and the inhibition at 10 µM (hERG; human) was -36%. For the same molecule, the inhibition at 30 µM (hERG; human) was -25%.
